In the NIST ThermoML archive (doi:10.1016/j.tca.2014.11.028):
Numbers after ± are expanded uncertainties.

What was measured:
[1] = xn = mol fraction of the nth substance listed; settings: 101 kPa, Liquid, Vibrating tube method
[2] = 101 kPa, Liquid, Vibrating tube method

C[N+](C)(C)CCO.[Cl-] [choline chloride] + OCCO
[1], x1 = 0.3333
Settings | mass density [kg/m3]
283.15 K | 1122.9 ± 1.1
293.15 K | 1117.1 ± 1.1
303.15 K | 1111.4 ± 1.1
313.15 K | 1105.7 ± 1.1
323.15 K | 1100.1 ± 1.1
333.15 K | 1094.7 ± 1.1
343.15 K | 1088.7 ± 1.1
353.15 K | 1081.9 ± 1.1
363.15 K | 1074.4 ± 1.1

O=C(O)CC(=O)O [propanedioic acid] + C[N+](C)(C)CCO.[Cl-]
[1], x2 = 0.3333
Settings | mass density [kg/m3]
283.15 K | 1191.5 ± 1.1
293.15 K | 1185.1 ± 1.1
303.15 K | 1178.6 ± 1.1
313.15 K | 1172.3 ± 1.1
323.15 K | 1166 ± 1.1
333.15 K | 1160.3 ± 1.1
343.15 K | 1154 ± 1.1
353.15 K | 1146.6 ± 1.1
363.15 K | 1138.8 ± 1.1

O [water]
[2]
Settings | mass density [kg/m3]
283.15 K | 999.7 ± 1
323.15 K | 988 ± 1
333.15 K | 983.2 ± 1
343.15 K | 977.8 ± 1
353.15 K | 971.7 ± 1
363.15 K | 965 ± 1
